Data on 2 compounds can be found in patent US20230414826A1, “FIBRIN HYDROGELS” (Mayo Foundation for Medical Education and Research, priority 2020, published 2023).

This experiment concerns the target T1, fibrin gels (40 mg/mL fibrinogen, 33 U/mL thrombin) (Homo sapiens, UniProt P02671+P02675+P02679).
T1 construct: purchased Ethicon (Evicel)
T1 sequence (P02671 20-644 isoform P02671-2 limits assumed): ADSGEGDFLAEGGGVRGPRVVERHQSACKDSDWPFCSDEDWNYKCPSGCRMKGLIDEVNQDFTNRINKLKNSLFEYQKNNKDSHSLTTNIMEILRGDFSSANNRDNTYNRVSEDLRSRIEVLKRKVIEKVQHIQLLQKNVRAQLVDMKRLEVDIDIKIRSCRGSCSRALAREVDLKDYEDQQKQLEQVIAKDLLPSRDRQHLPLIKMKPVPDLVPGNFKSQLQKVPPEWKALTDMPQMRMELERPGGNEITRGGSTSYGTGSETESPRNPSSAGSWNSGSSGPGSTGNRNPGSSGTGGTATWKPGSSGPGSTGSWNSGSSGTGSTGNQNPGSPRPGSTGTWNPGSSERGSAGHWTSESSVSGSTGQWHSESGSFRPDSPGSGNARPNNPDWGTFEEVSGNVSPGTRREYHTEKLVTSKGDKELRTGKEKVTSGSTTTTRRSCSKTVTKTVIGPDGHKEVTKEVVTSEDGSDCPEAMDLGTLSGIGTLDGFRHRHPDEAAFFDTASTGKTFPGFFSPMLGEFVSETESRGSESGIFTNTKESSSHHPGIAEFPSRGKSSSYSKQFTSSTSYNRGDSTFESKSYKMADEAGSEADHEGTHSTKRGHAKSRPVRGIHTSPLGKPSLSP
T1 sequence (P02675 45-491 limits assumed): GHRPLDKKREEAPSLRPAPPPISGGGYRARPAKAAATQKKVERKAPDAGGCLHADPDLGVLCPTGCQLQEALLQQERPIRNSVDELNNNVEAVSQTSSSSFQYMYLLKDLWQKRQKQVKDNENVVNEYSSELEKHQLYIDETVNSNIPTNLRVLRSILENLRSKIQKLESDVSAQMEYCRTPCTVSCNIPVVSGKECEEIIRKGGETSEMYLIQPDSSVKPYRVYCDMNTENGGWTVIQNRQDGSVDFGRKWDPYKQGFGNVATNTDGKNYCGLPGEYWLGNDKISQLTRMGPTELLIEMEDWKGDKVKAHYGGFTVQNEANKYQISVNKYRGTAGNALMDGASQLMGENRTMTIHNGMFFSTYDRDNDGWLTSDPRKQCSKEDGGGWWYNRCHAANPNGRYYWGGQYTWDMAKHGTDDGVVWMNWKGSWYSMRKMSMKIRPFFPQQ
T1 sequence (P02679 27-437 isoform P02679-2 limits assumed): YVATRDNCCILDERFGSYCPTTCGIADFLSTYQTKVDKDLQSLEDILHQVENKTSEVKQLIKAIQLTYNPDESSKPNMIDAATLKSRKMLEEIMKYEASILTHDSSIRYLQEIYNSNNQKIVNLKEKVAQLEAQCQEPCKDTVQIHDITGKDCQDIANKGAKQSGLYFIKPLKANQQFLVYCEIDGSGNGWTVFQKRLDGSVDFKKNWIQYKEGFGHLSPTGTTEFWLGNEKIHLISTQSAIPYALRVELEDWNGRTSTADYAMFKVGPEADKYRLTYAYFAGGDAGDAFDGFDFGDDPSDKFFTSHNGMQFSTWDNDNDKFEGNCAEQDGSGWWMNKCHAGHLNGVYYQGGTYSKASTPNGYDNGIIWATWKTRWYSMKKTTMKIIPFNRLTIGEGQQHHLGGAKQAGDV
The experiment is described as follows: Biexponential modeling of shear modulus (g′) versus time data. The conditions noted are these: biexponential model; for time shift parameter (xc): 0.12% dye, n=3; for G′1: fast rate associated parameter; for G′1 / r1 / G′2 / r2 / xc: avg ± sd, n = 3; for r1: fast rate constant; for G′2: slow rate associated parameter; for r2: slow rate constant; for xc: time shift parameter. How it is done:
Modeling was performed using the shear modulus (g′) versus time data for each time sweep performed with gels with a final concentration of 40 mg/mL fibrinogen, 33 U/mL thrombin, and 0.12% dye. A biexponential model was used as described elsewhere (see, e.g., Wedgwood et al., Macromolecular Symposia, 334:117-25 (2013); and Moreno-Arotzena et al., Materials (Basel), 8:1636-51 (2015)). The following equation was used: […]
This equation model assumes a fast (1) and slow (2) kinetic rate. As such G′1 and G′2 are the respective rate associated parameters, r1 and r2 are the respective rates constants, and Xc is a time shift parameter. Modeling was performed using MATLAB (Mathworks; Natick, MA), using the model fit function. Parameters were defined with r1>r2 and xc as positive. Each sample run was best fitted to the model to generate an r^2>0.98.
Previous work has fitted fibrin gelation kinetics to a biexponential model (see, e.g., Moreno-Arotzena et al., Materials (Basel), 8:1636-51 (2015)). In this model, gelation, as measured by the shear modulus over time, consists of a fast and slow reaction rate. Each time sweep series was fitted to the biexponential model to determine the fast (1) and slow (2) associated parameters, reaction rates and time shift parameter (Table 2 and FIG. 9). The time shift parameters (xc) for the PBS, TB, EB, and PEG groups were 19.7±7.2, 62.9±9.7, 110.6±7.6, and 20.3±5.0 sec (n=3, p<0.001) (FIG. 9A). […] This re-affirms the shifted delay in gelation onset for TB and EB groups and confirms that the effect is not due to changes in molality. To understand if there is a change in reaction rates, the ratio of the fast to slow reaction rate was compared. The ratios, r1/r2, for PBS, TB, EB and PEG groups were […] (n=3, p=0.057) (FIG. 9B).

In the case of `Cc1cc(-c2ccc(/N=N/c3c(S(=O)(=O)O)cc4cc(S(=O)(=O)O)cc(N)c4c3O)c(C)c2)ccc1/N=N/c1c(S(=O)(=O)O)cc2cc(S(=O)(=O)O)cc(N)c2c1O` [TB, Trypan Blue], the “time shift parameter (xc)” value is 62.9 ± 9.7 s, the “G′1” value turned out to be 1555 ± 92, the r1 is 2679 ± 366 and the “G′2” value was 800 ± 186. The r2 worked out at 455 ± 131 and the xc is listed as 63 ± 10.
Take `Cc1cc(-c2ccc(/N=N/c3ccc4c(S(=O)(=O)O)cc(S(=O)(=O)O)c(N)c4c3O)c(C)c2)ccc1/N=N/c1ccc2c(S(=O)(=O)O)cc(S(=O)(=O)O)c(N)c2c1O` [EB, Evans Blue]: the “time shift parameter (xc)” value was 110.6 ± 7.6 s, the “G′1” value was 927 ± 395, the r1 is reported as 3720 ± 732 and the “G′2” value is on record as 787 ± 210. Further, the r2 turned out to be 739 ± 205 and the xc came out at 111 ± 8.
